Test results taken from patent US8349791B2, “Polypeptides that bind membrane proteins” (The Trustees of the University of Pennsylvania, priority 2006, dated 2013).
Square brackets hold non-standard residues; d marks the D form. Ends that are not written are not given here.

Columns and labels:
[1] = test system: gel-filtered human platelets; assay: Platelet aggregation, turbidometric; type: cell-based; settings: gel-filtered human platelets
Protocol: Platelet-rich plasma, prepared from human blood anti-coagulated with 0.1 volume of 0.13 M sodium citrate, was gel-filtered on Sepharose 2B (Amersham Biosciences, Piscataway, N.J.) using an elution buffer containing 137 mM NaCl, 2.7 mM KCl, 1 mM MgCl2, 5.6 mM glucose, 0.35 mg/ml bovine serum albumin, 3.3 mM NaH2PO4, and 4 mM HEPES (pH=7.4), as previously described. Jordan P et al. Nature 411, 909-917 (2001). Turbidometric measurements of platelet aggregation were performed in a Chrono-Log Lumi-Dual Aggregometer. Aliquots (0.4 ml) of the gel-filtered platelet suspension were supplemented with 200 μg/ml human fibrinogen (Enzyme Research Labs., South Bend, Ind.) and 1 mM CaCl2 (final concentrations) prior to adding platelet agonists. The polypeptide was added from a DMSO solution such that the final concentration of DMSO was no greater than 0.5%. All controls also had 0.5% DMSO in the buffer.

[2] = test system: gel-filtered human platelets; settings: cited from earlier work
[3] = molecular target: T1, full-length αIIbβ3 integrin (Homo sapiens, UniProt P08514); assay: Fluorescence anisotropy titration with full-length integrin; type: binding; settings: N-octyl-β-D-glucopyranoside micelles, 64 nM labelled peptide, 25° C.
T1 construct: The full-length integrin aIIbβ3 protein in buffer
Protocol: The full-length integrin aIIbβ3 protein in buffer (7.9 mg/ml, 10 mM HEPES (pH=7.5), 60 mM N-octyl-β-D-glucopyranoside, 0.5 mM CaCl2, 0.02% NaN3) was prepared using the previously reported method. Weisel J W et al. J. Biol. Chem. 267, 16637-16643 (1992). Fluorescence polarization experiments were conducted on an ATF 105 spectrofluorometer (Aviv Biomedical, Inc., Lakewood, N.J.) using a 0.3 cm path length cuvette. Spectra were measured at 25° C. using 1.0 nm slit widths. Excitation at 408 nm was used for the coumarin-labeled polypeptide and the emission maximum at 433 nm was monitored. Anisotropy measurements were recorded upon titration of the integrin αIIbβ3 protein at varying concentrations into a polypeptide solution of 64 nM coum-anti-αIIb or coum-anti-αIIbmut. Data analysis was carried out according to previously described methods. See Yin H et al. J. Am. Chem. Soc. 127, 10191-96 (2005).

Row | Substance | platelet aggregation response [1] | also measured
1 | RAWFALFLLIFLGFLLGVATLLVQY ([dR][dA][dW][dF][dA][dL][dF][dL][dL][dI][dF][dL]G[dF][dL][dL]G[dV][dA][dT][dL][dL][dV][dQ][dY]) [d-anti-αIIb] | aggregation of gel-filtered human platelets was induced by increasing concentrations | –
2 | αIIb-TM: polypeptide spanning residues Trp968 to Lys989 of αIIb (WVLVGVLGGLLLLTILVLAMWK) | – | potency as activator of αIIbβ3 / inducer of platelet aggregation relative to anti-αIIb [2]: substantially less potent
3 | coum-anti-αIIb: 7-hydroxycoumarin-3-carboxamide-labeled anti-αIIb, label attached via a linker to the N-terminus (KKAYVMLLPFFIGLLLGLIFGGAFWGPARHLKK; not fully specified (N-terminus, C-terminus); also: label attached via an unspecified linker) | – | apparent Kdiss for αIIbβ3 [3]: 1.3±0.2×10^−5 mole fraction units
4 | KKIFGVLTFLFGYILGALITGAVYWFVQLLAKK [anti-αIIb′] | highly active | –
